In US7750019B2, “Pyrimidine compound having benzyl(pyridylmethyl)amine structure and medicament comprising the same” (Kowa Company, Ltd., priority 2006, dated 2010):
Counter-ions that a name gives are not always drawn.

Key:
CETP [1] = target: T1, CETP (Homo sapiens, UniProt P11597); experiment: CETP inhibitory action in human plasma (Roar Biomedical CETP Activity kit, fluorescence); assay type: biochemical; details: human plasma incubated with compound at 37° C. for 4 hours; read-out: IC50 (concentration inhibiting the CETP activity by 50%)
T1 construct: The CETP activity in this plasma was measured with Cholesteryl Ester Transfer Protein Activity kit; from tissue; host or cells: human plasma
T1 sequence (P11597 18-493): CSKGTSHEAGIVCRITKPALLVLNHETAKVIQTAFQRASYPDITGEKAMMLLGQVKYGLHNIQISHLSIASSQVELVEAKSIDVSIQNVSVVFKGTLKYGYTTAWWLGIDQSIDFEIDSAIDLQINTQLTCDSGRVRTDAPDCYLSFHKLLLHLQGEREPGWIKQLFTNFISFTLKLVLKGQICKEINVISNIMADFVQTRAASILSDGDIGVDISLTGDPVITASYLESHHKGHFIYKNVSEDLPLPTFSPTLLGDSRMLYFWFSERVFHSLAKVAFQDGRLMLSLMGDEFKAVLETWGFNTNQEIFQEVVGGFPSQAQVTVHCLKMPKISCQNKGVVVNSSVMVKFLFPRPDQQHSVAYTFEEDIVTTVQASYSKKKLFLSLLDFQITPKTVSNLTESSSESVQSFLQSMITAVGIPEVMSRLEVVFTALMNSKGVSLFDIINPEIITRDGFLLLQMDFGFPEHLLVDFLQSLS
Experimental: A solution obtained by dissolving an exemplary compound or a comparative compound in polyethyleneglycol/N-methyl-2-pyrrolidone (vol/vol=1/1) was added to human plasma, and the mixture was incubated in an incubator at 37° C. for 4 hours. The CETP activity in this plasma was measured with Cholesteryl Ester Transfer Protein Activity kit (Roar Biomedical, catalog No.: RB-CETP). Specifically, to each well of a 96-well plate, 95 μL of a buffer (10 mM Tris, 150 mM NaCl, 2 mM EDTA, pH 7.4), 2 μL of Donor particle and 2 μL of Acceptor particle were added, 1 μL of the human plasma after the incubation was added to the mixture, and the mixture was incubated in an incubator at 37° C. for 2 hours. After completion of the incubation, fluorescence intensity (FLU) was measured with a fluorescence plate reader (excitation wavelength: 465 nm, emission wavelength: 535 nm). In accordance with the following equation 1, the CETP activity (% of control) was obtained for the compounds of the examples and the comparative compounds for two or more concentrations. CETP activity (% of control)=(Sample FLU−Blank FLU)×100/(Control FLU−Blank FLU) (Equation 1) In the equation, the terms have the following meanings: Blank: No addition of plasma Control: Plasma not added with solution of compound Sample: Plasma added with solution of compound
A value obtained by subtracting the value of the CETP activity from 100 was defined as the CETP inhibitory rate of each exemplary compound and comparative compound, and a concentration inhibiting the CETP activity by 50% (IC50) was calculated for each exemplary compound and comparative compound from the values of the CETP inhibitory rate at two or more concentrations. As the comparative compounds, the following compounds were used, which are compounds having a benzyl(heterocyclylmethyl)amine structure described in Examples 52, 66 and 79 of Patent document 9 (International Patent Publication WO2006/073973).

CETP [2] = experiment: CETP inhibitory activity in blood of hamster (single oral administration); assay type: in vivo; details: 30 mg/kg single oral dose in olive oil, blood collected 2 hours after administration, n=3, control 33.7 ± 2.3
Experimental: 1: Labeling of Donor Lipoprotein (HDL3 Fraction) with ^3H-Cholesterol and Preparation of Acceptor Lipoprotein (LDL Fraction)
The donor lipoprotein was prepared by adding KBr to plasma of healthy human subject (50 mL) to adjust the specific gravity (d) of the plasma to be 1.125, centrifuging the mixture at 100,000 rpm and 4° C. for 2.5 hours (Optima Max-E TLA-100.2 rotor, Beckman), and collecting the lower layer (HDL3 fraction, d>1.125). The resulting fraction was dialyzed against PBS (10 mM Na2HPO4, 10 mM NaH2PO4, 0.15 M NaCl, 1 mM EDTA-2Na, pH 7.4). Then, a 95% ethanol solution of 9.25 MBq 1, 2-3H(N)cholesterol (NEN™, Life Science Products, USA) was added to the sample with stirring, and the mixture was incubated at 37° C. for 18 hours. After the incubation, the mixture was added with KBr to adjust the specific gravity thereof to be 1.210, and centrifuged under the same conditions as mentioned above to obtain the upper layer (^3H-labeled HDL3 fraction, 1.125<d<1.210). The ^3H-labeled HDL3 was dialyzed against PBS, and used for the measurement of the CETP activity.
The acceptor lipoprotein was prepared as follows. Plasma of healthy human subject (30 mL) was centrifuged under the same conditions as mentioned above, and the upper layer (chylomicron and VLDL fraction, d<1.006) was removed. The lower layer was added with KBr to adjust the specific gravity thereof to be 1.063, and centrifuged under the same conditions to obtain the upper layer (LDL fraction, 1.006<d<1.063). The LDL fraction was dialyzed against PBS and used for the measurement of the CETP activity.
Each of the compounds of Examples 10 and 13 and the comparative compounds was dissolved in olive oil and orally administered once to the animals, and blood was collected from the abdominal portion of vena cava under pentobarbital anesthetization 2 hours after the administration. Further, as a control, olive oil in which any compound was not dissolved was administered, and blood was collected in a similar manner (n=3 for each).
(§1) To 10 μL of the hamster plasma, 5 μL of ^3H-labeled HDL3 and 20 μL of LDL were added, and the final volume of the mixture was made […] with a TBS solution (10 mM Tris, 0.15 M NaCl, pH 7.4). The mixture was incubated at 37° C. for 18 hours, then added with 400 μL of the TBS solution containing 0.15 M MgCl2 and 0.3% dextran sulfate, stirred (10 sec×2) with VORTEX-2 (Scientific Industries Inc.), left for 30 minutes on ice, and centrifuged at 4° C. and 8,000 rpm for 10 minutes (MX-301, TOMY). The resulting centrifugation supernatant (^3H-labeled HDL3 fraction) in a volume of 300 μL was collected in a vial, and added with 3.6 mL of a scintillator (Aquazol-2, Packard), and the mixture was stirred. Then, radioactivity of ^3H was measured with a liquid scintillation counter (TRI-CARB 2700 TR, Packard). The CETP activity (%) was obtained in accordance with the following equation 2. CETP activity (%)=(Blank dpm−Sample dpm)×100/(Blank dpm) (Equation 2) In the equation, the terms have the following meanings: Blank dpm: Value of ^3H radioactivity of sample not added with plasma Sample dpm: Value of ^3H radioactivity of sample added with compound or control sample.

CETP [3] = experiment: CETP inhibitory activity in blood of hamster (repetitive oral administration for 7 days); assay type: in vivo; details: 100 mg/kg orally once a day for 7 days, blood collected 2 hours after final administration, n=5, control 43.5 ± 6.4
Experimental: as §1, with “sample. […]” for “sample.”

Row | melting point [°C] | IC50 (CETP [1]) [nM] | SMILES | Average CETP activity ± standard deviation (%) (CETP [2]) | Average CETP activity ± standard deviation (%) (CETP [3])
1 | 67 to 71 | – | CCN(CC1CCCC1)c1ccc(OC)nc1CN(Cc1cc(C(F)(F)F)cc(C(F)(F)F)c1)c1ncc(OCCS(C)(=O)=O)cn1 (as salt: hydrochloride) [Example 13, 2-[N-[3,5-bis(trifluoromethyl)benzyl]-N-[3-(N-cyclopentylmethyl-N-ethyl)amino-6-methoxypyridin-2-yl]methyl]amino-5-(2-methylsulfonylethoxy)pyrimidine] | – | –
2 | – | 1000 | CCN(CC1CCCC1)c1nc2ccccc2cc1CN(Cc1cc(C(F)(F)F)cc(C(F)(F)F)c1)c1nnn(C)n1 [Comparative Compound 1, reference compound] | 22.9 ± 3.3 | –
3 | – | 20000 | CCN(CC1CCCC1)c1nc2ccccc2cc1CN(Cc1cc(C(F)(F)F)cc(C(F)(F)F)c1)c1ncccn1 [Comparative Compound 2, reference compound] | 30.3 ± 4.2 | –
4 | – | 1500 | CCN(CC1CCCC1)c1nc(C)c(C)cc1CN(Cc1cc(C(F)(F)F)cc(C(F)(F)F)c1)c1nnn(C)n1 [Comparative Compound 3, reference compound] | 15.0 ± 4.0 | –
5 | – | 90 | CCN(CC1CCCC1)c1ccc(OC)nc1CN(Cc1cc(C#N)cc(C(F)(F)F)c1)c1ncc(OCC[S+](C)[O-])cn1 (stereo not drawn) [Example 9, 2-[N-(3-cyano-5-trifluoromethylbenzyl)-N-[3-(N-cyclopentylmethyl-N-ethyl)amino-6-methoxypyridin-2-yl]methyl]amino-5-(2-methylsulfinylethoxy)pyrimidine] | – | –
6 | 97.2 to 98.2 | 35 | CCN(CC1CCCC1)c1ccc(OC)nc1CN(Cc1cc(C#N)cc(C(F)(F)F)c1)c1ncc(OCCS(C)(=O)=O)cn1 [Example 10, 2-[N-(3-cyano-5-trifluoromethylbenzyl)-N-[3-(N-cyclopentylmethyl-N-ethyl)amino-6-methoxypyridin-2-yl]methyl]amino-5-(2-methylsulfonylethoxy)pyrimidine] | 2.6 ± 1.1 | 11.4 ± 6.0
7 | – | 350 | CCN(CC1CCCC1)c1ccc(OC)nc1CN(Cc1cc(C(F)(F)F)cc(C(F)(F)F)c1)c1ncc(OCC[S+](C)[O-])cn1 (stereo not drawn) [Example 12, 2-[N-[3,5-bis(trifluoromethyl)benzyl]-N-[3-(N-cyclopentylmethyl-N-ethyl)amino-6-methoxypyridin-2-yl]methyl]amino-5-(2-methylsulfinylethoxy)pyrimidine] | – | –
8 | – | 250 | CCN(CC1CCCC1)c1ccc(OC)nc1CN(Cc1cc(C(F)(F)F)cc(C(F)(F)F)c1)c1ncc(OCCS(C)(=O)=O)cn1 [Example 13, 2-[N-[3,5-bis(trifluoromethyl)benzyl]-N-[3-(N-cyclopentylmethyl-N-ethyl)amino-6-methoxypyridin-2-yl]methyl]amino-5-(2-methylsulfonylethoxy)pyrimidine] | 8.5 ± 1.7 | 9.0 ± 1.7
9 | – | 500 | CCN(CC1CCCC1)c1ccc(OC)nc1CN(Cc1cc(C#N)cc(C#N)c1)c1ncc(OCC[S+](C)[O-])cn1 (stereo not drawn) [Example 41, 2-[N-[3-(N-cyclopentylmethyl-N-ethyl)amino-6-methoxypyridin-2-yl]methyl-N-(3,5-dicyanobenzyl)]amino-5-(2-methylsulfinylethoxy)pyrimidine] | – | –
10 | – | 250 | CCN(CC1CCCC1)c1ccc(OC)nc1CN(Cc1cc(C#N)cc(C#N)c1)c1ncc(OCCS(C)(=O)=O)cn1 [Example 42, 2-[N-[3-(N-cyclopentylmethyl-N-ethyl)amino-6-methoxypyridin-2-yl]methyl-N-(3,5-dicyanobenzyl)]amino-5-(2-methylsulfonylethoxy)pyrimidine] | – | –
